Source: patent US20110098323A1, “INHIBITORS OF BACTERIAL BIOFILM FORMATION” (MICROBIOTIX, INC., priority 2009, published 2011)
Read-outs that look alike come from different tables or passages of the source.

Legend:
Type in all cases: cell-based, Staphylococcus aureus
[1] = tested on: methicillin-susceptible S. aureus (MSSA); test: MBIC/MIC secondary assay; details: for MIC: Staphylococcus aureus
Experimental: (§1) Assays for detecting and measuring bacterial biofilm formation are known in the art. An example of a biofilm formation assay useful in detecting and characterizing biofilm inhibitor compounds is described in Example 1, infra. Briefly, bacterial cells are inoculated into growth medium in individual wells of a 96-well assay plate in the presence or absence of a compound (known biofilm inhibitor or test compound). After incubation for a specified time, growth medium and non-biofilm bacterial cells are removed from each of the wells. The bacterial cells in any biofilms that are adhered to the surface of a well are fixed by addition of ethanol. The ethanol is removed, and the fixed biofilm bacteria cells are stained with crystal violet (CV). The intensity of CV staining is directly correlated with bacterial biofilm formation and is measured in the wells by reading the optical density at 600 nm (OD600). The difference in biofilm formation between untreated control and treated cultures provides an indication of relative biofilm inhibition activity (anti-biofilm activity). Use of different concentrations of an inhibitor in multiple and otherwise duplicate cultures permits determination of a compound's Minimal Biofilm Inhibitory Concentration (MBIC), which is defined herein as the lowest concentration of a compound that inhibits biofilm formation by at least 80% (i.e., ≧80%) compared to untreated control cultures.
(§2) A higher throughput was achieved by formatting the assay for use in flat-bottomed 96-well assay plates (Costar 3590 assay plates, Corning Life Sciences, Lowell, Mass.). The biofilm cultures grew on the bottoms of each well in a surface attached mode. In each assay plate, columns 1 and 12 contained untreated cultures, which served as negative controls (0% biofilm inhibition). Each of the assay wells in columns 2-11 contained a unique small molecule from the Microbiotix Screening Library (MSL) at a final concentration of 100 μM. Assay plates were inoculated with 200 μl/well of a culture of Staphylococcus pidermidis 18972 in 0.5×Tryptic Soy Broth (TSB; Becton Dickinson, Franklin Lakes, N.J.) in which the concentration of glucose was adjusted to 0.25% (w/v). The bacterial inocula were prepared by making a 1:100 dilution of an overnight culture grown in TSB in the media used for the screen. After inoculation, assay plates were sealed with foil tape and incubated at 37° C. for 18-20 hours (h). The optical density at 600 nm (OD600) was measured for each well using a VICTOR2V™ multiplate reader (Perkin Elmer, Waltham, Mass.) in order to quantify overall bacterial growth. The assay plates were processed to remove bacterial growth media and non-biofilm cells from the bottom of each assay well. This was accomplished by using a BioTek ELx405™ plate washer (BioTek Instruments, Inc., Winooski, Vt.). Biofilm bacteria were fixed by addition of 50 μl of 95% ethanol for 30 minutes (min). The ethanol was removed, and the fixed biofilm cultures were stained with 50 μl of 0.06% crystal violet (CV) for 60 min. Excess CV was removed by repeated washes using the BioTek ELx405™ plate washer. The amount of CV bound to each assay well was quantified by measuring OD600 using a VICTOR2V™ plate reader (Perkin Elmer).
(§3) A secondary assay provided a quantitative measure of both anti-biofilm activity and antibacterial activity in terms of the Minimal Biofilm Inhibitory Concentration (MBIC) and the Minimal Inhibitory Concentration (MIC), respectively. The MBIC and MIC are defined as the lowest compound concentrations that inhibit biofilm formation and bacterial growth, respectively, by at least 80% (i.e., ≧80%). The MBIC/MIC assay is formatted in a manner that is similar to the Microbroth dilution assays described by the Clinical and Laboratory Standards Institute (CLSI; formerly NCCLS) in protocol M7-A7. The growth conditions were optimized for biofilm growth in 96-well assay plates such that the resulting CV staining was within the linear range of detection. […]

[2] = tested on: S. aureus strain NRS-123; test: MBIC/MIC secondary assay; details: for MIC: Staphylococcus aureus, NRS123
Experimental: as §1, §2, §3

[3] = tested on: S. aureus ATCC 35556; test: Planktonic growth curve assay; details: aerobic planktonic cultures; concentrations up to 8×MBIC; data not shown
Experimental: However, the specificity of these compounds for inhibiting biofilm growth was verified using an alternative growth curve assay. Planktonic cultures of S. aureus ATCC 35556 were grown aerobically in the presence of various concentrations of Compound 4 (MBIC=3.125 μM). Bacterial cell growth was monitored over time by measuring OD600.

[4] = tested on: S. aureus ATCC 35556; test: Inhibition of biofilm growth at various stages of biofilm development (time of addition); details: 22 hours total incubation, CV staining
Experimental: Compound 4 was added to bacterial cultures at a concentration of 4XMBIC (12 μM) at various times (0, 1, 2, 4, 6, 8, 10, 12, and 21 hours) over a 22 hour incubation period. Biofilm growth was also followed in parallel cultures in the absence of Compound 4 (untreated controls). Biofilm growth was quantified in samples by staining with crystal violet and measuring OD600. […] See, Example 5 for details.
In this experiment, wells of a 96-well assay plate containing growth medium (0.5×TSB, 0.25% (w/v) glucose) were inoculated with S. aureus ATCC 35556 and incubated at 37° C. At selected times (0, 1, 2, 4, 6, 8, 10, 12, 21 hours) during the incubation period, Compound 4 was added to individual wells at a concentration of 4×MBIC. Biofilms were washed and stained with crystal violet (CV) to measure biofilm growth after the entire assay plate (all cultures) had been incubated for a total of 22 hours. Biofilm growth in the absence of Compound 4 was followed in parallel cultures (untreated control cultures). Samples were taken from untreated cultures at the same times as Compound 4 was added to the inhibition cultures to quantify the level of biofilm growth by the CV staining method. […]

Compound	MBIC ([1]; S. aureus strain MSSA) [µM]	MIC ([1]; MSSA) [µM]	MBIC ([2]; S. aureus strain NRS-123) [µM]	MIC [2] [µM]	effect on planktonic bacterial cell growth (OD600 over time) [3]	inhibition of biofilm formation, early stages ([4]; Compound added at 4×MBIC at early stages (up to 2 h))	inhibition of biofilm formation, maturing biofilms ([4]; Compound added at 4×MBIC to maturing biofilms (8-16 h))	MIC ([1]; S. aureus strain MSSA, read-out: MIC) [µM]	MIC ([2]; S. aureus strain NRS-123, read-out: MIC) [µM]
CCOc1cc(/C=C2\SC(=S)N(c3cccc(F)c3)C2=O)ccc1O [Compound 8, 3-(3-fluorophenyl)-5-(3-ethoxy-4-hydroxybenzylidene)-2-thioxothiazolidin-4-one]	25	≥ 100	25	≥ 100	–	–	–	–	–
CCOc1cc(/C=C2\SC(=S)N(c3cccnc3)C2=O)ccc1O [Compound 36, 3-(pyridin-3-yl)-5-(3-ethoxy-4-hydroxybenzylidene)-2-thioxothiazolidin-4-one]	12.5	≥ 100	12.5	≥ 100	–	–	–	–	–
CCOc1cc(/C=C2\SC(=S)N(c3ccc(F)cc3)C2=O)ccc1O [Compound 4, 3-(4-fluorophenyl)-5-(3-ethoxy-4-hydroxybenzylidene)-2-thioxothiazolidin-4-one]	12.5	≥ 100	25	≥ 100	did not affect	inhibited	resistant	–	–
CCOc1cc(/C=C2\SC(=S)N(c3cccc(C#N)c3)C2=O)ccc1O [Compound 34, 3-(3-cyanophenyl)-5-(3-ethoxy-4-hydroxybenzylidene)-2-thioxothiazolidin-4-one]	12.5	≥ 100	25	≥ 100	–	–	–	–	–
CCOc1cc(/C=C2\SC(=S)N(c3ccc(F)nc3)C2=O)ccc1O [Compound 40, 3-(6-fluoropyridin-3-yl)-5-(3-ethoxy-4-hydroxybenzylidene)-2-thioxothiazolidin-4-one]	6.3	≥ 100	50	≥ 100	–	–	–	–	–
C=CCOc1cc(/C=C2\SC(=S)N(c3ccc(F)cc3)C2=O)ccc1O [Compound 29, 3-(4-fluorophenyl)-5-(3-allyloxy-4-hydroxybenzylidene)-2-thioxothiazolidin-4-one]	12.5	–	25	–	–	–	–	≥ 100	≥ 100
